Laboratory results reported in publication PMC11811597, “Phenomics‐Based Discovery of Novel Orthosteric Choline Kinase Inhibitors” (Angewandte Chemie (International Ed. in English), 2025).
Entries after “also recorded” stand apart in the source; their conditions may differ.

Biological target: CHKA (Homo sapiens, UniProt P35790)
Assay: Competitive affinity-based chemoproteomics (UNC0965 matrix), PBMC cell extract
Assay type: binding
Design: endogenous in cells
Details: 20 µM competitor
Protocol: described.[2] Lysates were precleared with bead slurry (100 μL) for 30 min at 4 °C and then treated with UNC0638 or UNC0737 (20 μM) or DMSO control for 30 min at 4 °C followed by incubation with affinity matrix for 2 h at 4 °C. Affinity matrices were washed with buffer A (5 mL) and proteins eluted with 100 μL of 2x Laemmli sample buffer, 100 mM DTT, in PBS and heating for 10 min at 90 °C.
Eluents (70 µL) were diluted in 0.1 M Tris (pH 7.8) to 200 µL, reduced with 5 mM DTT for 30 min at RT, and alkylated with 20 mM iodoacetamide for 30 min at RT in the dark. Proteins were precipitated by sequential addition of MeOH (600 µL), CHCl3 (150 µL) and H2O (450 µL), pelleted (17,000 × g, 5 min), washed with further MeOH (2 × 600 µL), and re-pelleted. Air dried pellets were resuspended in 50 μL 6 M urea (pH 7.8) by vortexing and then diluted with 250 μL H2O before adding 1 µg trypsin for overnight incubation at 37 °C. The digests were acidified with FA (1% v/v final concentration), desalted using SOLA HRP SPE Cartridges (Thermo Fisher), eluted with 69% v/v MeCN, 0.1% v/v FA in H2O (600 μL) and dried in vacuo. Dried peptides were stored at -20 °C before resuspension in 2% v/v MeCN, 0.1% v/v FA in H2O (20 μL) for LC-MS/MS analysis.
LC-MS/MS Data Acquisition
Digested samples were analysed by nano-UPLC–MS/MS using a Dionex Ultimate 3000 nano UPLC fitted with an EASY spray column (75 μm × 500 mm, 2 μm particle size, Thermo Scientific), coupled to an Orbitrap Q Exactive instrument. […]
Raw data was processed using MaxQuant[3] version 2.0.1.0 and the reference complete human proteome FASTA file (UniProt, downloaded 05.08.21). Label Free Quantification (LFQ) and Match Between Runs were selected; Cysteine carbamidomethylation was selected as a fixed modification, and methionine oxidation and asparagine deamidation as variable modifications. Default settings for identification and quantification were used. […]
mode selected for both identification and quantification of proteins (razor peptides are uniquely assigned to protein groups and not to individual proteins).

CHKA, sequence (P35790 whole entry): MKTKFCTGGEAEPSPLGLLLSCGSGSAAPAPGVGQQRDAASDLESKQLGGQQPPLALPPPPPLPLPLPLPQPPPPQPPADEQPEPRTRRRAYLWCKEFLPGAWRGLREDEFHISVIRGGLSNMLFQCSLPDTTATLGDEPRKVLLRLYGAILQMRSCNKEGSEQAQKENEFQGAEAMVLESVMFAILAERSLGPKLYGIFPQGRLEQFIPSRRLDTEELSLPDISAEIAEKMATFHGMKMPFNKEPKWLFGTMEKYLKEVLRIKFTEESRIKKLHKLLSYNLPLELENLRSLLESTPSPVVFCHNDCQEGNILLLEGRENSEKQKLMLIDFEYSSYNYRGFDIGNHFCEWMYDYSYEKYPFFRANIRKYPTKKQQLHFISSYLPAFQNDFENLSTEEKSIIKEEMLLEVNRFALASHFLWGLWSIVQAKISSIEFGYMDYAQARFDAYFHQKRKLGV

SMILES | competition for CHKA binding to affinity matrix
COc1cc2c(NC3CCN(C(C)C)CC3)nc(C3CCCCC3)nc2cc1OCCCN1CCCC1 [UNC0638] | sole shared target
COc1cc2c(N(C)C3CCN(C(C)C)CC3)nc(C3CCCCC3)nc2cc1OCCCN1CCCC1 [UNC0737] | sole shared target; also recorded: reduced stronger
